Assay results from patent US5827849A, “Cyclic dericatives, pharmaceutical compositions containing these compounds and processes for preparing them” (Karl Thomae GmbH, priority 1993, dated 1998).
Structures can show the parent of a compound that is named as a salt. Where two headings read alike, the source gives them in different places.

Legend:
Human thrombocytes = assay: Inhibition of the binding of 3H-BIBU 52 to human thrombocytes (platelets); conditions: 20 minutes
Method: 1. Inhibition of the binding of ^3 H-BIBU 52 to Human thrombocytes […] Case 5/1093-FL) and various concentrations of the test substance. The free and bound ligand are separated by centrifuging and quantitatively measured by scintillation counting. From the measurements obtained the inhibition of ^3 H-BIBU 52 binding caused by the test substance is determined. In order to do this, donor blood is taken from an anticubital vein and anti-coagulated with trisodium citrate (final concentration 13 mM). The blood is centrifuged for 10 minutes at 170×g and the supernatant platelet-rich plasma (PRP) is removed. The remaining blood is centrifuged vigorously once more in order to recover plasma. The PRP is diluted with autologous plasma 1:10. 750 μl are incubated for 20 minutes at ambient temperature with 50 μl of physiological saline solution, 100 μl of test substance solution, 50 μl of ^14 C-sucrose (3700 Bq) and 50 μl of ^3 H-BIBU 52 (final concentration: 5 nM). In order to measure the non specific binding, 5 μl of BIBU 52 (final concentration 30 μM) are used instead of the test substance. […] The pellet is dissolved in 500 μl of 0.2N NaOH, 450 μl are mixed with 2 ml of scintallator and 25 μl of 5N HCl, and measured. The residual plasma remaining in the pellet is determined from the ^14 C-content, and the bound ligand is determined from the ^3 H-measurement. After substracting the non specific binding, the pellet activity is plotted against the concentration of the test substance and the concentration for 50% inhibition of binding is determined. A. Inhibition of the binding of ^3 H-BIBU 52 to human platelets […] The free and bound ligand is separated by centrifugation and determined quantitatively by scintillation counting. The inhibition of ^3 H-BIBU 52 binding by the test substance is determined from the measurements. For this purpose, donor blood is taken from an antecubital vein and anticoagulated with trisodium citrate (final concentration 13 mM). The blood is centrifuged at 170×g for 10 minutes, and the supernatant platelet-rich plasma (PRP) is removed. The remaining blood is thoroughly centrifuged once again to obtain plasma. The PRP is diluted 1:10 with autologous plasma. […] are incubated with […] of physiological saline, […] of test substance solution, […] of ^14 C-sucrose (3700 Bq) and 50 ml of ^3 H-BIBU 52 (final concentration: 5 nM) at room temperature for 20 minutes. To measure the nonspecific binding, 5 ml of BIBU 52 (final concentration: […]) are used in place of the test substance. […] The pellet is dissolved in 500 ml of 0.2N NaOH, and 450 ml are mixed with 2 ml of scintillator and 25 ml of 5N HCl and measured. The remaining plasma still present in the pellet is determined from the ^14 C content, and the bound ligand is determined from the ^3 H measurement. After subtraction of the nonspecific binding, the activity in the pellet is plotted against the concentration of test substance, and the concentration for 50% inhibition of binding is found.

[1] = system: Thrombocyte aggregation (collagen-induced); assay: Collagen-induced platelet aggregation in platelet-rich plasma (Born and Cross method); type: cell-based; conditions: Homo sapiens, 10 min, 10 minutes incubation at 37° C., read-out: Inhibition of platelet aggregation EC50
Method: 2. Antithrombotic activity Thrombocyte aggregation is measured using the Born and Cross method (J. Physiol. 170: 397 (1964)) in platelet-rich plasma taken from healthy volunteers. To inhibit coagulation the blood is mixed with 3.14% sodium citrate in a ratio by volume of 1:10. Collagen-induced aggregation The pattern of the decrease in optical density of the platelet suspension is photometrically measured and recorded after the addition of the aggregation-triggering substance. The rate of aggregation is determined from the angle of inclination of the density curve. The point on the curve where there is maximum light transmittance is used to calculate the optical density. The amount of collagen used is as small as possible but sufficient to produce an irreversible reaction curve. Standard commercial collagen produced by Hormonchemie of Munich is used. Before the addition of the collagen the plasma is incubated for 10 minutes with the test substance at 37° C. From the measurements obtained, an EC50 is determined graphically, indicating a 50% change in the optical density in terms of the inhibition of aggregation. B. Antithrombotic effect Platelet aggregation is measured by the method of Born and Cross (J. Physiol. 170, 397 (1964)) in platelet-rich plasma from healthy test subjects. For anticoagulation, sodium citrate 3.14% is added to the blood in the ratio 1:10 by volume. Collagen-induced aggregation The course of the decrease in optical density of the platelet suspension is measured and recorded photometrically after addition of the aggregation-inducing substance. The rate of aggregation is established from the angle of inclination of the density plot. The point on the plot at which the transmission of light is a maximum is used to calculate the optical density. The amount of collagen is chosen to be as small as possible but sufficient for the reaction plot to have an irreversible course. The collagen commercially obtainable from Hormonchemie, Munich, is used. Before the addition of collagen the plasma is in each case incubated with the substance at 37° C. for 10 minutes. An EC50 which relates to a 50% change in the optical density in the sense of inhibition of aggregation is determined graphically from the measured results.

[2] = system: collagen-induced thrombocyte aggregation; assay: Inhibition of collagen-induced thrombocyte aggregation ex vivo after oral administration; type: in vivo; conditions: Rhesus monkeys; oral administration of 1 mg/kg
[3] = human thrombocytes in plasma, 3H-BIBU 52 5 nM, ambient temperature, read-out: 3H-BIBU 52-binding test IC50
[4] = platelet-rich plasma of healthy volunteers, compounds of general formula I
[5] = human platelets in plasma, 3H-BIBU 52 5 nM replaces 125I-fibrinogen, room temperature, read-out: Fibrinogen binding assay IC50
[6] = platelet-rich plasma from healthy test subjects, compounds of general formula XXI

COC(=O)CCc1ccc(N2CCN(c3ccc4c(c3)CCNC4)C2=O)cc1 [Example 6, 1-[4-[2-(Methoxycarbonyl)ethyl]phenyl]-3-(1,2,3,4-tetrahydro-isoquinolin-6-yl)-imidazolidin-2-one-acetate]
IC50 (Human thrombocytes; [3]): 110 nM
EC50 [1, 4]: 40 nM

CCN1CCc2ncc(N3CCN(c4ccc(CCC(=O)O)cc4)C3=O)nc2CC1 [36 (10), 1-[4-(2-Carboxyethyl)phenyl]-3-(7-ethyl-6,7,8,9-tetrahydro-5-pyrazino[2,3-d]azepin-2-yl)imidazolidin-2-one×1,4 HCl×2 H2 O]
IC50 (Human thrombocytes; [5]): 32 nM
EC50 [1, 6]: 130 nM

CN1CCc2ncc(N3CCN([C@H]4CC[C@H](CCC(=O)O)CC4)C3=O)nc2CC1 [Example 32, 1-[trans-4-(2-Carboxyethyl)cyclohexyl]-3-(7-methyl-6,7,8,9-tetrahydro-5H-pyrazino[2,3-d]azepin-2-yl)imidazolidin-2-one×1 H2 O]
IC50 (Human thrombocytes; [5]): 11 nM
EC50 [1, 6]: 100 nM

Nc1nccc2cc(N3CCN(c4ccc(CCC(=O)O)cc4)C3=O)ccc12 [Example 1, 1-(1-Aminoisoquinolin-6-yl)-3-[4-(2-carboxyethyl)phenyl]-imidazolidin-2-one×1 water×1.2 acetic acid]
IC50 (Human thrombocytes; [3]): 190 nM
EC50 [1, 4]: > 10000 nM

O=C(O)CCc1ccc(N2CCN(c3ccc4c(c3)CCNCC4)C2=O)cc1 [Example 9, 1-[4-(2-Carboxyethyl)phenyl]-3-(2,3,4,5-tetrahydro-1H-3-benzazepin-7-yl)-imidazolidin-2-one]
IC50 (Human thrombocytes; [3]): 85 nM
EC50 [1, 4]: 190 nM

CN1CCc2ncc(N3CCN(C4CCN(CCC(=O)O)CC4)C3=O)nc2CC1 [36 (3), 1-[1-(2-Carboxyethyl)piperidin-4-yl]-3-(7-methyl-6,7,8,9-tetrahydro-5H-pyrazino[2,3-d]azepin-2-yl)imidazolidin-2-one trihydrochloride]
IC50 (Human thrombocytes; [5]): 18 nM
EC50 [1, 6]: 71 nM

CCN1CCc2cc(N3CCN([C@H]4CC[C@H](CCC(=O)O)CC4)C3=O)cnc2CC1 [32 (1), 1-[trans-4-(2-Carboxyethyl)cyclohexyl]-3-(7-ethyl-6,7,8,9-tetrahydro-5H-pyrido[2,3-d]azepin-3-yl)imidazolidin-2-one×1 H2 O]
IC50 (Human thrombocytes; [5]): 250 nM
EC50 [1, 6]: 310 nM

O=C(O)CC[C@H]1CC[C@H](N2CCN(c3ccc4c(n3)CCNCC4)C2=O)CC1 [32 (3), 1-[trans-4-(2-Carboxyethyl)cyclohexyl]-3-(6,7,8,9-tetrahydro-5H-pyrido[2,3-d]azepin-2-yl)imidazolidin-2-one]
IC50 (Human thrombocytes; [5]): 15 nM
EC50 [1, 6]: 81 nM

CN1CCc2ccc(N3CC(=O)N([C@H]4CC[C@H](CCC(=O)O)CC4)C3=O)cc2CC1 [19(3), 3-[trans-4-(2-carboxyethyl)cyclohexyl]-1-(3-methyl-2,3,4,5-tetrahydro-1H-3-benzazepin-7-yl)-hydantoin-hydrochloride]
IC50 (Human thrombocytes; [3]): 81 nM
EC50 [1, 4]: 430 nM

CN1CCc2ncc(N3CC(=O)N([C@H]4CC[C@H](CCC(=O)O)CC4)C3=O)nc2CC1 [36 (12), 3-[trans-4-(2-Carboxyethyl)cyclohexyl]-1-(7-methyl-6,7,8,9-tetrahydro-5H-pyrazino[2,3-d]azepin-2-yl)-imidazolidine-2,4-dione hydrochloride]
IC50 (Human thrombocytes; [5]): 13 nM
EC50 [1, 6]: 450 nM

O=C(O)CCc1ccc(N2CCN([C@@H]3CC[C@H]4CNCC[C@@H]4C3)C2=O)cc1 (relative stereo) [9(1)]
IC50 (Human thrombocytes; [3]): 760 nM
EC50 [1, 4]: 990 nM

CCN1CCc2ncc(N3CCN(c4ccc(OCC(=O)O)cc4)C3=O)nc2CC1 [36 (1), 1-[4-[(Carboxymethyl)oxy]phenyl]-3-(7-ethyl-6,7,8,9-tetrahydro-5H-pyrazino[2,3-d]azepin-2-yl)imidazolidin-2-one×1.75 HCl×H2 O]
IC50 (Human thrombocytes; [5]): 77 nM
EC50 [1, 6]: 290 nM

CN1CCc2ccc(N3CCN([C@H]4CC[C@H](CCC(=O)O)CC4)C3=O)nc2CC1 [35 (1), 1-[trans-4-(2-Carboxyethyl)cyclohexyl]-3-(7-methyl-6,7,8,9-tetrahydro-5H-pyrido[2,3-d]azepin-2-yl)imidazolidin-2-one dihydrochloride×2H2 O]
IC50 (Human thrombocytes; [5]): 17 nM
EC50 [1, 6]: 110 nM

CCN1CCc2cnc(N3CCN(C4CCC(CCC(=O)O)CC4)C3=O)cc2CC1 (stereo not drawn) [32 (2), 1-[trans-4-(2-carboxyethyl)cyclohexyl]-3-(7-ethyl-6,7,8,9-tetrahydro-5H-pyrido[3,4-d]imidazolidin-2one]
IC50 (Human thrombocytes; [5]): 1000 nM
EC50 [1, 6]: 2300 nM

O=C(O)CCc1ccc(N2CCN(c3ccc4c(c3)CCNC4)C2=O)cc1 [2(2), 1-[4-(2-carboxyethyl)phenyl]-3-(1,2,3,4-tetrahydroisoquinolin-6-yl)-imidazolidin-2-one]
IC50 (Human thrombocytes; [3]): 24 nM
EC50 [1, 4]: 40 nM

O=C(O)CCc1ccc(-n2ccn(-c3ccc4cnccc4c3)c2=O)cc1 [2(1), 1-[4-(2-carboxyethyl)phenyl]-3-(isoquinolin-6-yl)-3H-imidazol-2-one]
IC50 (Human thrombocytes; [3]): 5400 nM
EC50 [1, 4]: > 10000 nM

CN1CCc2ccc(N3CCN([C@H]4CC[C@H](OCC(=O)O)CC4)C3=O)cc2CC1 [19(1), 1-[trans-4-[(carboxymethyl)oxy]cyclohexyl]-3-(3-methyl-2,3,4,5-tetrahydro-1H-3-benzazepin-7-yl)-imidazolidin-2-one-hydrochloride×NaCl×0.5H2 O]
IC50 (Human thrombocytes; [3]): 120 nM
EC50 [1, 4]: 350 nM

O=C(O)CC[C@H]1CC[C@H](n2ccn(-c3cnc4c(n3)CCNCC4)c2=O)CC1 [32 (6), 1-[trans-4-(2-Carboxyethyl)cyclohexyl]-3-(6,7,8,9-tetrahydro-5H-pyrazino[2,3-d]azepin-2-yl)-3H-imidazol-2-one]
IC50 (Human thrombocytes; [5]): 31 nM
EC50 [1, 6]: 230 nM

CN1CCc2ncc(N3CCN([C@H]4CC[C@H](OCC(=O)O)CC4)C3=O)nc2CC1 [36 (2), 1-[trans-4-[(Carboxymethyl)oxy]cyclohexyl]-3-(7-methyl-6,7,8,9-tetrahydro-5H-pyrazino[2,3-d]azepin-2-yl)imidazolidin-2-one dihydrochloride]
IC50 (Human thrombocytes; [5]): 19 nM
EC50 [1, 6]: 210 nM

CC(C)COC(=O)CCc1ccc(N2CCN(c3ccc4c(c3)CCNC4)C2=O)cc1 [Example 7, 1-[4-[2-(Isobutyloxycarbonyl)ethyl]phenyl]-3-(1,2,3,4-tetrahydroisoquinolin-6-yl)-imidazolidin-2-one-hydrochloride×1 water]
duration of inhibition of collagen-induced thrombocyte aggregation ex vivo [2]: more than 5 hours
